{
  "source": "paper PMC2346451",
  "about": "(PLoS ONE, 2008)",
  "molecular_target": "rat TRPV1 (rTRPV1) (Rattus norvegicus, UniProt O35433)",
  "sequence (O35433 whole entry)": "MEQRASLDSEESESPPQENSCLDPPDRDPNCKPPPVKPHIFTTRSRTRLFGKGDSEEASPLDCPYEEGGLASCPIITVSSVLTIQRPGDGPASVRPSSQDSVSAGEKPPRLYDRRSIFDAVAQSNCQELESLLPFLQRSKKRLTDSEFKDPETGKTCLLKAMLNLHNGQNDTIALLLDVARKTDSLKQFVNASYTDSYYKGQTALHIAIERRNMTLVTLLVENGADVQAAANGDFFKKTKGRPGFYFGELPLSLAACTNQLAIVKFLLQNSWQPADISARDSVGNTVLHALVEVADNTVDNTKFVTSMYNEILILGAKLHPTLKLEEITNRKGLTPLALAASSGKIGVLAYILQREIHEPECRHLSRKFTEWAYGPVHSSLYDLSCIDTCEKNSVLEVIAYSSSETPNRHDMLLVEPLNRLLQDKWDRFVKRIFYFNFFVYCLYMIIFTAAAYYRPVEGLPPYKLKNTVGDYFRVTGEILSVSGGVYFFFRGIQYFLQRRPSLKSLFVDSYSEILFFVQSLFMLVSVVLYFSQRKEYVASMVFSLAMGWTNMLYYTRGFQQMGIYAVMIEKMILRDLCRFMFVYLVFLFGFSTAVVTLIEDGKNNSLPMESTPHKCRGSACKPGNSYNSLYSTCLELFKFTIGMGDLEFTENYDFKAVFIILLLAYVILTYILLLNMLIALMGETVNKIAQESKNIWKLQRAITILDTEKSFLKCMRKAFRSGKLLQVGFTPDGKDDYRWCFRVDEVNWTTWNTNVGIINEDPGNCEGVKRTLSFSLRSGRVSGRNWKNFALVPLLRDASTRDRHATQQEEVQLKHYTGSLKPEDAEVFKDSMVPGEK",
  "experiment": "Whole-cell patch clamp of rat TRPV1 expressed in HEK-293T cells",
  "format": "cell-based",
  "settings": "for Increase of agonist-evoked current prior to onset of inhibition: citral 1 mM, n = 8",
  "protocol": "Transformed human embryonic kidney-293 (HEK-293T) cells were grown in Dulbecco's modified Eagle's medium (DMEM)+F-12 supplemented with 10% fetal calf serum, and 1% penicillin/streptomycin in 5% CO2 at 37°C. Cells grown to 90% confluence in 35 mm Petri dishes were transiently transfected with plasmid DNA encoding a TRP channel construct (1 µg). Rat TRPV1 (rTRPV1) was cloned into an enhanced green fluorescent protein-containing vector (pTracer-CMV2; Invitrogen, Carlsbad, CA). Chicken TRPV1 (cTRPV1), the chicken rat TRPV1 chimera (crcTRPV1), rat TRPV2 (rTRPV2), mouse TRPV3 (mTRPV3), mouse TRPV4 (mTRPV4), rat TRPM8 (rTRPM8), and rat TRPA1 (rTRPA1), were cloned into pcDNA3 and co-transfected with enhanced green fluorescent protein (0.1 µg) to follow expression. The cTRPV1 and crcTRPV1 clones were kindly provided by Dr. David Julius. Recordings were carried out 24–36 hours after transfection. Cells were split via trypsin EDTA, plated on glass coverslips at 5–10% confluence, and used 2–3 hours later.\nElectrophysiological experiments were performed using the whole-cell patch-clamp technique at room temperature. Modified Ringer's solution with low chloride and nominal calcium contained (in mM): 130 sodium hydroxide, 5 potassium chloride, 1 magnesium chloride, 10 sodium 4-(2-hydroxyethyl)-1-piperazineethanesulfonic acid, 10 2-(N-morpholino)ethanesulfonic acid, and 20 glucose (pH 7.4; 310 milli-osmolar). […] 2 mM calcium chloride was included in the external solution where noted. To activate TRPV1, the modified Ringer's solution was made at pH 5 (low pH solution) and the chloride concentration was kept to a minimum to prevent contamination of the TRPV1 currents with acid-activated chloride currents. For recordings from heterologously expressing cells, the internal pipette solution contained (in mM): 125 cesium-Methanesulfonate, 10 cesium (1.2-bis(o-aminophenoxy)ethane-N,N,N',N'-tetraacetic acid, 8 sodium chloride, 4 magnesium adenosine triphosphate, and 10 HEPES (pH 7.2; 290 mOSM; nominal free calcium concentrations). For TRPA1 and dorsal root ganglion recordings, the internal pipette solution contained (in mM): 110 cesium-Methanesulfonate, 0.5 cesium4BAPTA, 8 sodium chloride, 0.2 calcium chloride, 4 magnesium-ATP, 4 sodium-GTP, and 10 4-(2-hydroxyethyl)-1-piperazineethanesulfonic acid (pH 7.2; 290 mOSM; 100 nM free calcium internal). MaxChelator was used to calculate the free calcium concentration (http://www.stanford.edu/cpatton/maxc.html).\nRecordings were obtained using an Axopatch 200B amplifier, Digidata 1322A analog-to-digital converter, and pClamp 8.01 software (Molecular Devices, Union City, CA). Data were low-pass filtered at 2 kHz and digitized at 5 kHz. Borosilicate glass pipettes (World Precision Instruments, Sarasota, FL) were typically 3 MΩ pipette resistance after fire polishing. Cell capacitance was measured for each cell, and access resistance compensated to ∼80%. Recordings were begun ∼5 minutes after initial rupture to ensure initial steady state conditions. Current-voltage (I-V) relations were obtained using a ramp protocol. Voltage ramps (400 ms) from −100 to +40 or +100 mV were applied every 1–2 seconds and the holding potential was either −70 mV or 0 mV (see Figure Legends). A 40 ms step was added at the beginning and end of the ramp (i.e. at −100 mV, +40 mV or +100 mV). Liquid junction potentials were not corrected.\nThe dose response curves were fit with the Hill equation, where [drawing 8] and [A] is the concentration of agonist or blocker, N is the Hill coefficient, and KD is the [A] for Imeasured/Imax = 0.5. The term apparent dissociation constant is used in place of the half concentration of excitation and inhibition. […] Averaged data are presented as mean±standard error (S.E.) throughout. Statistical analysis included paired and unpaired Student's t-test comparisons of the data; p values are reported in the text.",
  "note": "Like-named read-outs stand apart in the source and are kept apart here.",
  "data": [
    {"molecule": "CC(C)=CCCC(C)=CC=O", "note": "[citral, 3,7-dimethyl-2,6-octadienal]", "values": [
      {"measurement": "Reversibility of citral inhibition of agonist-evoked current", "result": "essentially irreversible"},
      {"measurement": "pH 5-evoked TRPV1 current remaining after citral washout", "setting": "30 seconds after citral washout, n = 5", "result": "0.2±0.1", "unit": "%"},
      {"measurement": "Hill coefficient (activation)", "setting": "+40 mV", "result": 2.9},
      {"measurement": "Increase of agonist-evoked current prior to onset of inhibition", "setting": "+40 mV", "result": "1.6±0.2", "unit": "fold"},
      {"measurement": "Increase of agonist-evoked current prior to onset of inhibition", "setting": "−100 mV", "result": "1.8±0.3", "unit": "fold"},
      {"measurement": "Kd", "setting": "citral activation, +40 mV, nominal external calcium, read-out: Activation KD, app", "result": 417, "unit": "µM"},
      {"measurement": "Kd", "setting": "citral activation, −40 mV, nominal external calcium, read-out: Activation KD, app", "result": 465, "unit": "µM"},
      {"measurement": "Hill coefficient (inhibition)", "setting": "citral block of pH5-evoked current", "result": 1.3},
      {"measurement": "Kd", "setting": "citral block of pH5-evoked current, read-out: Inhibition KD, app", "result": 187, "unit": "µM"},
      {"measurement": "Agonist efficacy IpH5/Icitral (1 mM)", "setting": "fold larger, −40 mV, n = 3", "result": "IpH5/Icitral (1 mM) 28±8 fold larger (n = 3; −40 mV)"},
      {"measurement": "Time for >50% inhibition of peak TRP current in continued presence of citral", "setting": "n = 9", "result": "≤ 14", "unit": "s"},
      {"measurement": "Hill coefficient (activation)", "setting": "−40 mV", "result": 2.7},
      {"measurement": "Increase of inward ITRPV1 above baseline", "setting": "−40 mV", "result": 14, "unit": "fold"}
    ]}
  ]
}
